The results in this text go back to US20050020544A1, “Bicyclic CB2 cannabinoid receptor ligands” (priority 2002, published 2005).

One data set relates to male Sprague-Dawley rats. Put plainly: Chronic constriction nerve injury, neuropathic pain (Von Frey filaments). The class given is in vivo, rat. The source says: The aim of this study was to assess the potential analgesic effects of the novel bicyclic CB2 binding compounds in an animal model of neuropathic pain. A peripheral monopathy was induced in the right hind limb of rats following a chronic constriction of the sciatic nerve (Bennet, G. J. & Xie, Y-K., Pain 33: 87-107, 1988). The development of mechanical allodyna was monitored using an established behavioral test (Von Frey filaments).
Pre-surgery baseline values were ascertained as the mean of 2 pre-surgery values. Once the baseline values had been established, the animals were surgically prepared by constricting the right sciatic nerve with 4 chromic cat gut loose ligatures.
The design was randomized, performed in a masked fashion as to whether drug or vehicle is being given. The animals, male Sprague-Dawley rats (average body weight 240-290 g), were allowed to acclimatize to the behavioral testing equipment prior to testing. On the testing day, the animals, at least six per treatment group, were given i.p. a single dose of one of the test compounds in a volume of 2.5 ml/kg. Fifteen minutes later, a series of Von Frey filaments (pre-calibrated prior to testing) were applied to the plantar surface of the hind paw, from below. The filaments were applied in ascending order starting with the weakest force and the withdrawal threshold for both the ipsilateral and contralateral hind paws was evaluated. Each filament was indented on the mid-plantar surface of the foot to the point where it just starts to bend; this is repeated approximately 8-10 times per filament at a frequency of approximately 1 Hz. The withdrawal threshold is defined as being the lowest force of two or more consecutive Von Frey's filaments to elicit a reflex withdrawal response (i.e. a brief paw flick) and is measured in grams.
The results are expressed as % increase in the threshold of response to Von Frey's filaments in the test compound treated group versus the vehicle treated animals and per definition the vehicle treated group yields a null baseline value. The black column represents the morphine treated animals (4 mg/kg), the gray and the dotted column bars represent two doses of compound A (0.5 and 1 mg/kg respectively).

In another data set the test system is ICR male mice. Put plainly: Tail flick model for acute peripheral pain, i.p. The class given is in vivo, mouse. Summed up:
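Male ICR mice (≥6/group) dosed i.p. at 0.1–10 mg/kg in Cremophor EL:ethanol diluted 1:20 in saline; morphine HCl 5 mg/kg as positive control. Tail illuminated 2 cm from tip at set times post-dose; latency (s) recorded in duplicate. Read-outs: latency and % animals showing analgesia, mean±SE; ANOVA/Tukey or Fisher's exact test, p<0.05.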

The test system of the next data set is Male Sprague Dawley rats. Put plainly: Effect on the cardiovascular system (MABP, heart rate). The class given is in vivo, rat. As to the method:
The purpose of this study was to assess the safety of the test compounds in male Sprague Dawley rats (270-350 g, Harlan, Israel). The test compounds were dissolved in vehicle, diluted 1:20 in sterile saline and injected either i.v. or i.p. at doses ranging from 0.1 to 2 mg/kg for i.v. administration or 10 to 40 mg/kg for i.p. administration, in volumes of 0.5 ml/100 g body weight. Each treatment group was composed of at least 6 animals. A cannula (PE 50, Clay Adams, USA) was implanted into the femoral artery under halothane anesthesia (induction 4% and maintenance 1%)). The vein was cannulated for drug administration. The arterial cannula was attached to a pressure transducer (Ohmeda DT-XX USA). The transducer was connected to a data acquisition system (Biopac, USA). Recordings of the heart rate (HR), mean arterial blood pressure (MABP) and electrocardiogram (ECG lead 2) were taken for 20 minutes before treatment, for the establishment of a stable baseline, up to 60 minutes following injections of the test compounds. Animals were also connected to a temperature recorder through a rectal thermistor probe (YSI Model 400, USA) and rectal temperature was monitored along the duration of the study.
Differences between vehicle and treatments are compared by one-way ANOVA, followed by post-hoc Newman-Keuls tests (Prism software from Graphpad, San Diego).

The next data set has as its system Male ICR mice. Put plainly: Psychomimetic effects: open field locomotor activity and rectal temperature. Format: in vivo, mouse. The following applies: for hypothermia (rectal body temperature): i.v., end of open-field examination. As to the method: Male ICR mice (25 g average body weight, Harlan, Israel) are used for a series of tests for psychotropic effects, specifically locomotor activity and rectal temperature. […] Naïve mice were used as control. Each treatment group is composed of at least 6 animals.
Animals were placed in an open field (60×50 cm) 5 minutes after i.v. administration of the treatment or 30 minutes after i.p. injection. Their locomotor activity was recorded using a video based computer system (ViewPoint, France). The following parameters were recorded for 3 minutes: the total distance, the time and the speed traveled by the animals. An additional parameter, rectal body temperature, was monitored at the end of the open-field examination using a thermostat thermometer (Cole Parker Model 8402-00) and a thermostat probe (YSI 400 Model 402).
Results are expressed as mean±SE and the differences between vehicle and treatments are compared by ANOVA, followed by post-hoc Tukey's test.

[1] abbreviates: 10 mg/kg i.p., 330 minutes (five and a half hours).
Where [2] appears, read: 20 mg/kg i.p., one hour follow-up.

In the case of `CCCCCCC(C)(C)c1cc(OC)c(C2C=C(CO)C3CC2C3(C)C)c(OC)c1` (single isomer, unassigned; (+)) [HU-308, (+) {4-[4-(1,1-dimethylheptyl)-2,6-dimethoxy-phenyl]-6,6-dimethyl-bicyclo[3.1.1]hept-2-en-2-yl}-methanol, reference compound], the “increase in pain threshold (Von Frey) versus vehicle” value in the data set on male Sprague-Dawley rats (5 mg/kg, separate experiment) turned out to be 117%.
In the case of `CCCCCCC(C)(C)c1cc(O)c(C2CC(=O)C3CC2C3(C)C)c(O)c1` (single isomer, unassigned; (-)) [Compound A, (−)-4-[4-(1,1-Dimethyl-heptyl)2,6-dihydroxy-phenyl]-6,6-dimethyl-bicyclo[3.1.1)heptan-2-one], the latency time worked out at 4.9 s in the data set on ICR male mice (4 mg/kg i.p., thirty minutes); 7.3 s in the data set with ICR male mice (10 mg/kg i.p., 90 minutes); 4.9 s in the data set on ICR male mice (setting [1]). For the same compound, the “% animals showing analgesia” value with ICR male mice (10 mg/kg i.p., 90 minutes) is listed as “more than 80%”. Further, the “% animals showing increased analgesia” value is listed as 80% in the data set with ICR male mice (setting [1]) and 100% in the data set on ICR male mice (10 mg/kg i.p., initiation of the study). For the same compound, the analgesia entry with ICR male mice (8 and 10 mg/kg i.p., 330 minutes) is given as “Significant analgesia was still evident”. The same compound came in with a maximal latency with ICR male mice (maximal tested dose 10 mg/kg i.p., 30 minutes) of 7.1 s. For the same compound, the “increase in pain threshold (Von Frey) versus vehicle” value in the data set with male Sprague-Dawley rats (0.5 mg/kg i.p., 15 minutes) turned out to be 71%; in the data set on male Sprague-Dawley rats (1 mg/kg i.p., 15 minutes), 64%. In addition, the “effect on heart rate” value with Male Sprague Dawley rats (0.1 mg/kg i.v.) is “minor insignificant and transient decline in HR”. In addition, the “decrease in MABP” value is 4 mmHg with Male Sprague Dawley rats (0.1 mg/kg i.v., 5 minutes post injection); “about 25 mmHg” in the data set on Male Sprague Dawley rats (0.5 mg/kg i.v., 5 minutes); “about 30 mmHg” with Male Sprague Dawley rats (1 mg/kg i.v., 5 minutes). Also, the results for the “time for MABP back to baseline range” value in the data set with Male Sprague Dawley rats (0.5 mg/kg i.v.) and with Male Sprague Dawley rats (1 mg/kg i.v.) were 30 min and 45 min, respectively. In addition, in the data set with Male Sprague Dawley rats (setting [2]), the “drop in HR” value is “about 17 beats per minute”. Also, the “drop in HR from baseline” value with Male Sprague Dawley rats (setting [2]) is 5%. The “maximal drop in HR” value in the data set with Male Sprague Dawley rats (higher doses i.v.) is “about 80 beats per minute”. Besides, the “hypotension (decrease in MABP)” value in the data set on Male Sprague Dawley rats (i.p., up to 30 mg/kg) is at most 15 mmHg. The “hypothermia (rectal body temperature)” value in the data set with Male ICR mice is “about 2 °C”.
Turning to `CCCCCCC(C)(C)c1cc(O)c([C@H]2CC(=O)[C@H]3C[C@@H]2C3(C)C)c(OC(=O)CCC(=O)O)c1` [Compound R, (−)-4-{4-[1,1-Dimethyl-heptyl]-2-succinate-6-hydroxy-phenyl}-6,6-dimethyl-bicyclo[3.1.1]heptan-2-one], in the data set on ICR male mice (10 mg/kg i.p., 90 minutes), the “% animals showing analgesia” value amounted to 100% and the latency time was 8.5 s. Besides, in the data set with ICR male mice (setting [1]), the “% animals showing increased analgesia” value turned out to be 100% and the latency time was found to be 6.8 s. The “% animals with increased resistance to pain” value with ICR male mice (10 mg/kg i.p., all along the duration of the study (5.5 hours)) stood at 100%. In the data set with ICR male mice (4 and 8 mg/kg i.p.), the “analgesia compared with 5 mg/kg morphine” value is recorded as “still twice better than 5 mg/kg morphine in generating analgesia”. In the data set with Male Sprague Dawley rats (40 mg/kg i.p.), the “amplitude of HR fluctuations” value turned out to be 10% and the “average drop in HR” value was “about 4 beats per minute”. Further, in the data set with Male Sprague Dawley rats (i.p., 40 mg/kg), the “reduction in MABP” value was at most 36 mmHg. In addition, in the data set with Male ICR mice (1, 2, 3, 4, 5 and 6 mg/kg i.v., 3 minutes open field), the total distance covered result is “fluctuations in total distance covered and again this phenomenon had no statistical significance”. The “hypothermia (rectal body temperature)” value in the data set with Male ICR mice was “about 2 °C”.
